Measurements from ChEMBL document CHEMBL5674860, “Optimized Dual-Glo Assay to identify co-culture-induced drug vulnerabilities in 3D CRC models” (2024).

Tests used:
Type in all cases: functional, Homo sapiens
Set-up in all cases: dose or concentration left out as unconfirmed
Colon cancer organoid [1] = test: Optimized Dual-Glo assay to identify co-culture induced drug vulnerabilities using donated chemical probes and chemogenomics kinase set in O06 CRC organoid and F06 CAF mono and co-culture. […] Cell viability is reported both mono and co-culture models.
Colon cancer organoid [2] = test: Optimized Dual-Glo assay to identify co-culture induced drug vulnerabilities using donated chemical probes and chemogenomics kinase set in O14 CRC organoid and F14 CAF mono and co-culture. […] Cell viability is reported both mono and co-culture models.
Colon cancer organoid [3] = test: Optimized Dual-Glo assay to identify co-culture induced drug vulnerabilities using donated chemical probes and chemogenomics kinase set in O20 CRC organoid and F20 CAF mono and co-culture. […] Cell viability is reported both mono and co-culture models.
[4] = Culture type Co-Culture, Transduced with Lucferase2-P2A-EGFP lentivirus
[5] = Culture type Co-Culture, Transduced with Renilla-dsRed lentivirus
[6] = Culture type Mono-Culture, Transduced with Lucferase2-P2A-EGFP lentivirus
[7] = Culture type Mono-Culture, Transduced with Renilla-dsRed lentivirus

Structure (SMILES) | Cell Viability (Colon cancer organoid [1]; [4]) | Cell Viability (Colon cancer organoid [1]; [5]) | Cell Viability (Colon cancer organoid [1]; [6]) | Cell Viability (Colon cancer organoid [1]; [7]) | Cell Viability (Colon cancer organoid [2]; [4]) | Cell Viability (Colon cancer organoid [2]; [5]) | Cell Viability (Colon cancer organoid [2]; [6]) | Cell Viability (Colon cancer organoid [2]; [7]) | Cell Viability (Colon cancer organoid [3]; [4]) | Cell Viability (Colon cancer organoid [3]; [5]) | Cell Viability (Colon cancer organoid [3]; [6]) | Cell Viability (Colon cancer organoid [3]; [7])
Cc1cnc(-c2cc(Cl)ccc2F)cc1-n1c(=O)n(CC(N)=O)c2cnccc21 [TP-008] | 13.7504% | 213.932% | 47.0575% | 82.299% | 97.8203% | 116.603% | 124.72% | 98.4627% | 64.1613% | 114.054% | 79.9392% | 106.384%
CCOC(=O)c1c(/C(C#N)=C\N)c2ccc(Cl)c(Cl)c2n1C | 122.99% | 97.4073% | 58.62% | 82.6208% | 135.947% | 65.0868% | 144.997% | 76.1592% | 92.1376% | 87.4636% | 163.638% | 89.5418%
COCCN1CCC(c2cc(CN(C)C(=O)c3cccc(Oc4ccccc4)c3)ccn2)CC1 | 91.2389% | 131.922% | 95.8918% | 124.805% | 94.0691% | 112.751% | 102.019% | 112.74% | 94.1045% | 115.605% | 130.999% | 103.56%
CC[C@@H]1C(=O)N(C)c2cnc(Nc3ccc(C(=O)NC4CCN(C)CC4)cc3OC)nc2N1C1CCCC1 [BI-2536] | 3.341% | 324.743% | 5.694% | 205.81% | 6.08% | 320.789% | 25.6478% | 192.03% | 3.7112% | 168.723% | 5.1365% | 106.916%
CN(C)C/C=C/C(=O)Nc1cc2c(Nc3ccc(F)c(Cl)c3)ncnc2cc1O[C@H]1CCOC1.O=C(O)/C=C\C(=O)O.O=C(O)/C=C\C(=O)O [AFATINIB DIMALEATE] | 26.678% | 56.3894% | 6.9021% | 44.0198% | 29.2387% | 54.1607% | 5.719% | 44.7132% | 37.5755% | 73.123% | 10.3381% | 31.0858%
Cn1cc(-c2[nH]c3cc(NC(=O)[C@H](N)C4CCCCC4)cc4c3c2C=NNC4=O)cn1 | 9.334% | 180.436% | 3.761% | 107.077% | 1.93% | 159.115% | 4.927% | 82.9355% | 23.152% | 172.741% | 12.2596% | 94.31%
Nc1nc(NCc2ccccc2)nc(-c2cccc(CO)c2)n1 [ZINC32547799] | 97.3324% | 116.001% | 131.751% | 105.708% | 88.7631% | 96.1691% | 137.995% | 97.2983% | 123.978% | 66.6285% | 56.0193% | 93.8657%
CCn1cc(-c2ccnc3[nH]c(-c4cccc(CN(C)C)c4)cc23)c(-c2ccc(NC(=O)N(C)C)cc2)n1 [GSK-1070916] | 8.589% | 116.692% | 3.637% | 93.7927% | 29.7048% | 205.838% | 28.675% | 102.681% | 9.493% | 207.056% | 12.2557% | 100.034%
C=CC(=O)N1CCC([C@@H]2CCNc3c(C(N)=O)c(-c4ccc(Oc5ccccc5)cc4)nn32)CC1 [ZANUBRUTINIB] | 36.1998% | 136.235% | 10.7372% | 131.234% | 47.5574% | 261.02% | 57.577% | 123.54% | 8.425% | 202.782% | 10.0679% | 138.33%
Cn1nc(C(=O)NCc2ccc(C(=O)O)cc2)cc1-c1ccc2[nH]ccc2c1 [BI 4395] | 92.221% | 114.828% | 85.3335% | 79.5775% | 58.8492% | 93.1183% | 115.617% | 91.6294% | 100.657% | 92.7545% | 82.9051% | 93.5086%
CCCc1cc(C)[nH]c(=O)c1CNC(=O)c1cc(-c2ccc(N3CCN(C(C)C)CC3)nc2)cc2c1cnn2C(C)C | 81.1391% | 118.175% | 116.95% | 88.1686% | 66.7096% | 94.8471% | 83.1931% | 95.0739% | 58.7881% | 157.842% | 61.2858% | 75.3301%
C[C@H](c1ccc(F)cc1)N(Cc1ccc(Cl)c(C(=O)O)c1)C(=O)c1cnc2ccccc2c1 [PF-05257137] | 116.801% | 128.047% | 124.519% | 88.8687% | 77.6621% | 111.229% | 120.37% | 101.269% | 147.232% | 103.742% | 109.057% | 106.822%
CC(=O)c1cc(-c2cc(C(=O)NC3CC3)ccc2C)c2ncccn12 | 95.4153% | 118.795% | 58.2009% | 132.016% | 100.15% | 126.848% | 106.827% | 109.242% | 68.1057% | 121.421% | 109.894% | 113.039%
CC1=C(C#N)C(c2ccc3c(c2)c(NC(=O)c2ccccc2C)nn3C)C(C#N)=C(C)N1 [BAY-974] | 97.6295% | 94.9804% | 90.396% | 95.4639% | 102.224% | 90.7163% | 99.5288% | 100.218% | 105.235% | 128.576% | 108.1% | 107.642%
COc1cc(Nc2nccc(-c3cnn4nc(OC)ccc34)n2)cc(C(F)(F)F)c1 | 25.4978% | 199.418% | 18.9413% | 49.3331% | 8.865% | 107.014% | 18.5626% | 63.2458% | 11.0854% | 189.711% | 12.7509% | 71.1906%
CNC(=O)Nc1ccc(-c2nc(N3CC4CCC(C3)O4)c3cnn(C4CCC5(CC4)OCCO5)c3n2)cc1 | 4.885% | 48.532% | 5.396% | 31.9288% | 9.5061% | 63.2179% | 14.6121% | 40.9027% | 5.834% | 97.6391% | 5.978% | 53.3135%
O=C(CNCc1cc2ccccc2[nH]1)N[C@H]1CC[C@@H](c2nc3ccccc3[nH]2)CC1 | 85.8975% | 91.436% | 103.293% | 98.1178% | 97.4401% | 97.7804% | 95.7204% | 104.778% | 100.625% | 124.153% | 84.865% | 96.1375%
COCc1nc2cnc3cc(-c4c(C)noc4C)c(OC[C@H]4CCNC4)cc3c2n1[C@H](C)c1ccccc1 [GSK778] | 81.063% | 183.714% | 53.5183% | 186.322% | 59.3767% | 280.444% | 39.3913% | 175.876% | 27.5933% | 143.906% | 31.8546% | 105.119%
